Results from patent publication US12729377B2, “RNAi agents and compositions for inhibiting expression of angiopoietin-like 3 (ANGPTL3), and methods of use” (Arrowhead Pharmaceuticals, Inc., priority 2017, dated 2026).
In the oligonucleotide strings, read from the 5' end, every base follows the letter of its sugar. An asterisk marks phosphorothioate; unmarked linkages are phosphodiester. Other units and linkages are bracketed, terminal groups are in braces. A string of capitals states the bases alone. {NAG37} = N-acetyl-galactosamine tridentate targeting ligand (NAG37); [invAb] = inverted abasic unit; m = 2'-O-methyl; f = 2'-fluoro

Key:
ANGPTL3 protein = assay: Example 10: serum ANGPTL3 protein by ELISA in mice; type: in vivo; settings: 0.5 mg/kg single SC injection day 1, female C57bl/6 mice, n=3, ratio to D5W control
Method: (§1) To assess the in vivo activity of further ANGPTL3 RNAi agents that are designed to target position 304 on the ANGPTL3 gene, six- to eight-week-old female C57bl/6 mice were used. Pre-dose serum samples were taken at day −1 after a four hour fast. At day 1, each mouse was given a single subcutaneous administration of 200 μl containing 0.5 mg/kg (mpk) of an ANGPTL3 RNAi agent in D5W (dextrose in 5% water), or control (D5W) with no RNAi agent, according to the dosing groups recited in Table 47.
(§2) Each of the RNAi agents included a modified sequence and an N-acetyl-galactosamine-containing targeting ligand conjugated to the 5′ terminal end of the sense strand. (See Tables 3, 4, and 5 for modified sequences and targeting ligand structures). As noted above, each of the ANGPTL3 RNAi agents dosed in this study included nucleotide sequences designed to target the ANGPTL3 gene at position 304. The injections were performed between the skin and muscle (i.e. subcutaneous injections) into the loose skin over the neck and shoulder area. Three (3) mice in each group were tested (n=3). Serum was collected on days 8, 15, 22, 29, and for some groups on day 36 (i.e., Groups 1, 2, and 9-13 only). Mice were fasted for four hours prior to each collection. ANGPTL3 protein levels in serum were measured by ELISA assay (R&D Systems), according to the manufacturer's recommendations. Triglycerides, total cholesterol, high-density lipoprotein (HDL), and low-density lipoprotein (LDL) in serum were measured on a Cobas® Integra 400 (Roche Diagnostics), according to the manufacturer's recommendations.
(§3) The ANGPTL3 protein levels, triglyceride levels, total cholesterol levels, HDL levels, and LDL levels for each animal were normalized. For normalization, the level of ANGPTL3 protein, triglyceride, HDL, and total cholesterol, respectively, for each animal at a time point, was divided by the pre-treatment level of expression in that animal (in this case at day −1) to determine the ratio of expression “normalized to pre-treatment.” Expression at a specific time point was then normalized to the D5W control group by dividing the “normalized to pre-treatment” ratio for an individual animal by the mean “normalized to pretreatment” ratio of all mice in the D5W control group.

ANGPTL3 gene [1] = assay: Example 10: serum total cholesterol in mice; type: in vivo; settings: 0.5 mg/kg single SC injection day 1, female C57bl/6 mice, n=3, ratio to D5W control
Method: as §1, §2, §3

ANGPTL3 gene [2] = assay: Example 10: serum triglycerides in mice; type: in vivo; settings: 0.5 mg/kg single SC injection day 1, female C57bl/6 mice, n=3, ratio to D5W control
Method: as §1, §2, §3

ANGPTL3 gene [3] = assay: Example 10: serum LDL in mice; type: in vivo, C57bl/6 mice; settings: 0.5 mg/kg sc
Method: as §1, §2, §3

ANGPTL3 gene [4] = assay: Example 10: serum HDL in mice; type: in vivo; settings: 0.5 mg/kg single SC injection day 1, female C57bl/6 mice, n=3, ratio to D5W control
Method: as §1, §2, §3

Substance: AD05791: RNAi agent duplex: antisense AM07624-AS, sense AM07234-SS (antisense mU*fA*mCfUmGfAmUfCmAfAmAfUmAfUmGfUmUfGmA*fG*mC; sense {NAG37}*[invAb]*mGmCmUmCmAmAmCmAfUfAfUmUmUmGmAmUmCmAmGmUmA*[invAb])
- Average ANGPTL3 Protein Normalized to Pre-Treatment and Control (ANGPTL3 protein; Day 8): 0.145
- Average ANGPTL3 Protein Normalized to Pre-Treatment and Control (ANGPTL3 protein; Day 15): 0.170
- Average ANGPTL3 Protein Normalized to Pre-Treatment and Control (ANGPTL3 protein; Day 22): 0.214
- Average ANGPTL3 Protein Normalized to Pre-Treatment and Control (ANGPTL3 protein; Day 29): 0.246
- Average Total Cholesterol Normalized to Pre-Treatment and Control (ANGPTL3 gene [1]; Day 8): 0.664
- Average Total Cholesterol Normalized to Pre-Treatment and Control (ANGPTL3 gene [1]; Day 15): 0.694
- Average Total Cholesterol Normalized to Pre-Treatment and Control (ANGPTL3 gene [1]; Day 22): 0.631
- Average Total Cholesterol Normalized to Pre-Treatment and Control (ANGPTL3 gene [1]; Day 29): 0.677
- Average Triglycerides Normalized to Pre-Treatmen and Control (ANGPTL3 gene [2]; Day 8): 1.125
- Average Triglycerides Normalized to Pre-Treatmen and Control (ANGPTL3 gene [2]; Day 15): 0.930
- Average Triglycerides Normalized to Pre-Treatmen and Control (ANGPTL3 gene [2]; Day 22): 1.631
- Average Triglycerides Normalized to Pre-Treatmen and Control (ANGPTL3 gene [2]; Day 29): 0.854
- Avg LDL Normalized to Pre-Treatment and Control (ANGPTL3 gene [3]; Day 8): 0.878
- Avg LDL Normalized to Pre-Treatment and Control (ANGPTL3 gene [3]; Day 15): 0.744
- Avg LDL Normalized to Pre-Treatment and Control (ANGPTL3 gene [3]; Day 22): 0.848
- Avg LDL Normalized to Pre-Treatment and Control (ANGPTL3 gene [3]; Day 29): 0.755
- Average HDL Normalized to Pre-Treatment and Control (ANGPTL3 gene [4]; Day 8): 0.632
- Average HDL Normalized to Pre-Treatment and Control (ANGPTL3 gene [4]; Day 15): 0.674
- Average HDL Normalized to Pre-Treatment and Control (ANGPTL3 gene [4]; Day 22): 0.563
- Average HDL Normalized to Pre-Treatment and Control (ANGPTL3 gene [4]; Day 29): 0.679
